Data as given in article PMC8765437, “GSK3640254 Is a Novel HIV-1 Maturation Inhibitor with an Optimized Virology Profile” (Antimicrobial Agents and Chemotherapy, 2022).
Where two headings read alike, the source gives them in different places.

How the values were obtained:
[1] = tested on: RepRlucNL4-3GagP373S variants; test: Virus breakthrough in MT-2 cell culture in the presence of compound; type: cell-based, HIV-1; conditions: for Days to virus breakthrough, Expt 1 / Days to virus breakthrough, Expt 2: drug 80 nM; for samples exhibiting breakthrough: low and high MOIs, 80 nM, over the 46-day experiment
Protocol: The ability of virus to break through and grow in the presence of an inhibitory concentration of a compound in cell culture provides an indication of its resistance barrier. […] Experiments were performed in duplicate at a low or high MOI (0.005 and 0.05) and at a drug concentration of 80 nM with RepRlucP373S WT virus or SDM-containing virus with known Gag polymorphisms (Table 6).
Cultures were incubated at 37°C and 5% CO2 until ∼100% cytopathic effect (CPE) was observed. […] At each passage, 100 μL of culture supernatant was collected and stored at −20°C. When a culture reached 100% CPE, it was terminated, and supernatants were harvested for subsequent virus population sequencing.

[2] = tested on: HIV-1 M tropic strains; test: M-tropic laboratory strains, extracellular p24 antigen in PM1 cells; type: cell-based
Protocol: (§1) Virus yields were measured in dose-response experiments by either luciferase activity in human T-cells (CEM-NKR-CCR5-Luc), extracellular reverse transcriptase activity in MT-2 cells (T-tropic viruses), or extracellular p24 antigen in PM1 cells (M-tropic viruses).
Multiple-cycle assays using recombinant viruses or clinical isolates were used to assess MI antiviral activity as described previously ([10]). pNLRepRlucP373S (the P373S change is in the Gag gene and converts an outlier polymorphism in the NL4-3 gene to the prevalent amino acid in the population) plasmids containing SDMs in Gag or gag/pr regions from clinical isolates were transfected into HEK 293T cells, and the supernatant containing recombinant virus was harvested after 4 to 5 days. Virus was used to infect MT-2 cells in the presence of a 3-fold serially diluted compound at a final dimethyl sulfoxide (DMSO) concentration of 1%. The inocula of the reporter viruses were determined based on the luciferase activity detected on day 4 postinfection. The MOI (ratio of infectious virions to target cells) of reporter-free laboratory strains and clinical isolates was 0.005, as derived from a tissue culture infectious dose study. Clinical isolates or reporter-free viruses were examined in the reporter CEM-NKR-CCR5-Luc cells or PBMCs at MOIs ranging from 0.005 to 0.01. Each infection started with a drug-free preincubation of the cell-virus mixtures, performed at 37°C and 5% CO2 for either 1 h at 2 times the final cell density (reporter viruses) or 1 h (reporter-free laboratory strains) or 3 h (clinical isolates) using cell pellets in 0.5 mL of medium. […] Virus growth was determined on days 4 to 5 postinfection for reporter variants or days 5 to 11 for the other viruses. The reporter viruses were detected by a luciferase assay according to manufacturer protocols (Brite-Glo luciferase kit [Promega] for CEM-NKR-CCR5-Luc cells and Dual-Luciferase Reporter 1000 assay system [Promega] for the other cells), and luminescence was detected on a Wallac Trilux. The growth of clinical isolates in PBMCs was quantitated by reverse transcriptase activity in a 96-well scintillation proximity assay (SPA). […] Luminescence was detected on a Wallac Trilux programmed for tritium counting with SPA beads in opaque plates. The growth of the reporter-free laboratory M-tropic strains and clinical isolates was monitored by a p24 enzyme-linked immunosorbent assay (ELISA; PerkinElmer Life Sciences, Waltham, MA) performed on culture supernatants.
(§2) Maximal percent inhibition values were calculated as MPI = 100 – (mean signals at the 2 highest concentrations of compound/mean signal of 2 no-drug control wells) × 100.

[3] = tested on: HIV-1 laboratory strains; test: Laboratory strains, reverse transcriptase activity in MT-2 cells; type: cell-based
Protocol: as §1
Multiple-cycle assays using recombinant viruses or clinical isolates were used to assess MI antiviral activity as described previously ([10]). pNLRepRlucP373S (the P373S change is in the Gag gene and converts an outlier polymorphism in the NL4-3 gene to the prevalent amino acid in the population) plasmids containing SDMs in Gag or gag/pr regions from clinical isolates were transfected into HEK 293T cells, and the supernatant containing recombinant virus was harvested after 4 to 5 days. Virus was used to infect MT-2 cells in the presence of a 3-fold serially diluted compound at a final dimethyl sulfoxide (DMSO) concentration of 1%. The inocula of the reporter viruses were determined based on the luciferase activity detected on day 4 postinfection. The MOI (ratio of infectious virions to target cells) of reporter-free laboratory strains and clinical isolates was 0.005, as derived from a tissue culture infectious dose study. Clinical isolates or reporter-free viruses were examined in the reporter CEM-NKR-CCR5-Luc cells or PBMCs at MOIs ranging from 0.005 to 0.01. Each infection started with a drug-free preincubation of the cell-virus mixtures, performed at 37°C and 5% CO2 for either 1 h at 2 times the final cell density (reporter viruses) or 1 h (reporter-free laboratory strains) or 3 h (clinical isolates) using cell pellets in 0.5 mL of medium. After preincubation, cell-virus mixtures were added to compound-containing 96-well plates for a final cell density of either 10,000 (MT-2 cells for reporter viruses), 20,000 (MT-2 and PM1 cells for reporter-free laboratory strains), 200,000 (PBMCs for clinical isolates), or 500,000 (CEM-NKR-CCR5-Luc for reporter-free laboratory strains) cells per well. The CEM-NKR-CCR5-Luc cell assay was performed in the presence of Polybrene (10 μg/mL). Virus growth was determined on days 4 to 5 postinfection for reporter variants or days 5 to 11 for the other viruses. The reporter viruses were detected by a luciferase assay according to manufacturer protocols (Brite-Glo luciferase kit [Promega] for CEM-NKR-CCR5-Luc cells and Dual-Luciferase Reporter 1000 assay system [Promega] for the other cells), and luminescence was detected on a Wallac Trilux. The growth of clinical isolates in PBMCs was quantitated by reverse transcriptase activity in a 96-well scintillation proximity assay (SPA). Twenty microliters of culture supernatants was mixed with 40 μL of reaction cocktail (62.5 mM Tris-HCl [pH 7.8], 100 mM KCl, 0.0625% NP-40, 2.5 mM dithiothreitol [DTT], 6.25 mM MgCl2, 1 mM EGTA, 6.25 μg/mL of poly rA, 2.5 μg/mL of streptavidin SPA beads prebound with biotinylated-dT12-18, and 1 μCi of [^3H]TTP). Mixtures were incubated at 37°C for ∼3 h and quenched with 100 μl of 0.25 M EDTA per well. Luminescence was detected on a Wallac Trilux programmed for tritium counting with SPA beads in opaque plates. The growth of the reporter-free laboratory M-tropic strains and clinical isolates was monitored by a p24 enzyme-linked immunosorbent assay (ELISA; PerkinElmer Life Sciences, Waltham, MA) performed on culture supernatants.
as §2

[4] = Estimation of minimum plasma concentration required for clinical efficacy; set-up: species or system human; conditions: multiples higher than PBA EC90 of the vast majority of HIV-1 isolates
Text: These viruses were chosen to be representative of the population of Gag genes as a whole, including known polymorphism-containing viruses with reduced susceptibility to GSK’795, as well as SDM viruses with multiple changes that had previously been identified as relevant for susceptibility to earlier MIs ([7], [11]).

[5] = Human immunodeficiency virus 1, PM1, Bal
[6] = Human immunodeficiency virus 1, PM1, JRFL
[7] = Human immunodeficiency virus 1, NL43, MT2, NL4-3, second value in cell, read-out: EC50 (converted)

## C=C(C)[C@@H]1CC[C@]2(NCCN3CCS(=O)(=O)CC3)CC[C@]3(C)[C@H](CC[C@@H]4[C@@]5(C)CC=C(C6=CC[C@@](CF)(C(=O)O)CC6)C(C)(C)[C@@H]5CC[C@]43C)[C@@H]12 [GSK’254]
[1]; High MOI (0.05), V362I
  Days to virus breakthrough, Expt 1: 11 days
  Days to virus breakthrough, Expt 2: 11 days
[1]; High MOI (0.05), V370A
  Days to virus breakthrough, Expt 1: >46 days
  Days to virus breakthrough, Expt 2: >46 days
[1]; High MOI (0.05), V370M
  Days to virus breakthrough, Expt 1: 21 days
  Days to virus breakthrough, Expt 2: 11 days
[1]; High MOI (0.05), Wild type
  Days to virus breakthrough, Expt 1: >46 days
  Days to virus breakthrough, Expt 2: 18 days
[1]; Low MOI (0.005), V362I
  Days to virus breakthrough, Expt 1: 46 days
  Days to virus breakthrough, Expt 2: >46 days
[1]; Low MOI (0.005), V370A
  Days to virus breakthrough, Expt 1: >46 days
  Days to virus breakthrough, Expt 2: 11 days
[1]; Low MOI (0.005), V370M
  Days to virus breakthrough, Expt 1: >46 days
  Days to virus breakthrough, Expt 2: 18 days
[1]; Low MOI (0.005), Wild type
  Days to virus breakthrough, Expt 1: 14 days
  Days to virus breakthrough, Expt 2: >46 days
[1]
  samples exhibiting breakthrough: 9 of 16
[2]; [5]
  EC50: 1.1 nM
[2]; [6]
  EC50: 1.2 nM
[3]; [7]
  EC50: 7.3 nM
[4]
  estimated Cmin (target human steady-state serum concentration): 150 nM

## C=C(C)[C@@H]1CC[C@]2(NCCN3CCS(=O)(=O)CC3)CC[C@]3(C)[C@H](CC[C@@H]4[C@@]5(C)CC=C(c6ccc(C(=O)O)cc6)C(C)(C)[C@@H]5CC[C@]43C)[C@@H]12 [GSK’795, reference compound]
[1]; High MOI (0.05), V362I
  Days to virus breakthrough, Expt 1: 7 days
  Days to virus breakthrough, Expt 2: 7 days
[1]; High MOI (0.05), V370A
  Days to virus breakthrough, Expt 1: 11 days
  Days to virus breakthrough, Expt 2: 11 days
[1]; High MOI (0.05), V370M
  Days to virus breakthrough, Expt 1: 7 days
  Days to virus breakthrough, Expt 2: 7 days
[1]; High MOI (0.05), Wild type
  Days to virus breakthrough, Expt 1: 11 days
  Days to virus breakthrough, Expt 2: 14 days
[1]; Low MOI (0.005), V362I
  Days to virus breakthrough, Expt 1: 7 days
  Days to virus breakthrough, Expt 2: 11 days
[1]; Low MOI (0.005), V370A
  Days to virus breakthrough, Expt 1: 11 days
  Days to virus breakthrough, Expt 2: 18 days
[1]; Low MOI (0.005), V370M
  Days to virus breakthrough, Expt 1: 7 days
  Days to virus breakthrough, Expt 2: 11 days
[1]; Low MOI (0.005), Wild type
  Days to virus breakthrough, Expt 1: >46 days
  Days to virus breakthrough, Expt 2: 14 days
[1]
  samples exhibiting breakthrough: 15 of 16
[2]; [5]
  EC50: 3.7 nM
[2]; [6]
  EC50: 13 nM
[3]; Human immunodeficiency virus 1, HXB2, MT2, HXB2, footnote b: RT activity in MT-2 cells, read-out: GSK’795 EC50 ± SD
  EC50: 9.3 ± 3.9 nM
[3]; Human immunodeficiency virus 1, IIIB, MT2, IIIB, footnote b: RT activity in MT-2 cells, read-out: GSK’795 EC50 ± SD
  EC50: 2.5 ± 0.8 nM
[3]; Human immunodeficiency virus 1, MT2, LAI, footnote b: RT activity in MT-2 cells, read-out: GSK’795 EC50 ± SD
  EC50: 2.4 ± 0.8 nM
[3]; Human immunodeficiency virus 1, MT2, MN, footnote b: RT activity in MT-2 cells, read-out: GSK’795 EC50 ± SD
  EC50: 1 nM
[3]; Human immunodeficiency virus 1, MT2, RF, head footnote b: RT activity in MT-2 cells unless otherwise noted, read-out: GSK’795 EC50 ± SD
  EC50: 6.9 ± 2.8 nM
[3]; Human immunodeficiency virus 1, NL43, MT2, NL4-3, first value in cell, footnote b: RT activity in MT-2 cells, read-out: GSK’795 EC50 ± SD
  EC50: 3.9 ± 2.2 nM
[3]; [7]
  EC50: 19 nM
